PubChem BioAssay AID743352 (Broad Institute, 2014)
The source made the active and inactive calls. The rule behind the calls is not given here.

tested on: M. tuberculosis BioA-TetON underexpression strain, growth inhibition; test: m tuberculosis bioa teton underexpression strain, growth inhibition, cell based, single point (AID 743352)

| Compound | IC90 |
| --- | --- |
| CN(C)C(=O)c1ccc(N2CCN(C(=O)c3ccc4c(c3)OCO4)CC2)cc1 | > 50 µM (inactive) |
| CC(=O)c1ccc(NCCNC(=O)c2ccc3c(c2)OCO3)cc1 | > 50 µM (inactive) |
| CN1c2ccc(-c3ccc(F)cc3)cc2[C@H]2[C@H](CCN2C(=O)Cc2cccnc2)[C@H]1CO | > 50 µM (inactive) |
| COC(=O)CCCCCCC(=O)N1CC[C@@H]2[C@@H](CO)N(C)c3ccc(-c4cccc(F)c4)cc3[C@@H]21 | > 50 µM (inactive) |
| COc1ccc(NC(=O)N2CC[C@@H]3[C@@H](CO)N(C)c4ccc(-c5ccc(F)cc5)cc4[C@@H]32)cc1 | > 50 µM (inactive) |
| CN1c2ccc(-c3ccc(F)cc3)cc2[C@H]2[C@H](CCN2C(=O)Cc2ccccn2)[C@H]1CO | > 50 µM (inactive) |
| CN1c2ccc(-c3cccc(F)c3)cc2[C@H]2[C@H](CCN2C(=O)c2ccc3c(c2)OCO3)[C@@H]1CO | > 50 µM (inactive) |
| CNS(=O)(=O)c1ccc(N2CCN(C(=O)c3ccc4c(c3)OCO4)CC2)cc1 | > 50 µM (inactive) |
| CC(=O)c1ccc(N2CCN(C(=O)c3ccccc3Cl)CC2)cc1 | > 50 µM (inactive) |
| CC(=O)c1ccc(N2CCN(C(=O)c3ccc4c(c3)OCO4)[C@H](C)C2)cc1 | 17.3 µM |
| CN1c2ccc(-c3cccc(F)c3)cc2[C@H]2[C@H](CCN2C(=O)Cc2cccnc2)[C@H]1CO | > 50 µM (inactive) |
| COc1cccc(NC(=O)N2CC[C@@H]3[C@@H](CO)N(C)c4ccc(-c5cccc(F)c5)cc4[C@@H]32)c1 | > 50 µM (inactive) |
| CN1c2ccc(-c3ccc(F)cc3)cc2[C@H]2[C@H](CCN2C(=O)Nc2ccc(F)cc2)[C@H]1CO | > 50 µM (inactive) |
| COc1ccccc1NC(=O)N1CC[C@@H]2[C@@H](CO)N(C)c3ccc(-c4ccc(F)cc4)cc3[C@@H]21 | > 50 µM (inactive) |
| CN1c2ccc(-c3ccc(F)cc3)cc2[C@H]2[C@H](CCN2C(=O)Nc2cc(F)ccc2F)[C@H]1CO | > 50 µM (inactive) |
| CC(=O)c1ccc(N2CCN(C(=O)c3ccc4c(c3)OCO4)CC2)cc1 | 22.2 µM |
| CN1c2ccc(-c3cccc(F)c3)cc2[C@H]2[C@H](CCN2C(=O)CCCCCCC(=O)O)[C@H]1CO | > 50 µM (inactive) |

| Compound | IC90 |
| --- | --- |
| CCCNC(=O)N1CC[C@@H]2[C@@H](CO)N(C)c3ccc(-c4ccc(F)cc4)cc3[C@@H]21 | > 50 µM (inactive) |
| CN1c2ccc(-c3cccc(F)c3)cc2[C@@H]2[C@@H](CCN2C(=O)c2ccc3c(c2)OCO3)[C@@H]1CO | > 50 µM (inactive) |
| CN1c2ccc(-c3cccc(F)c3)cc2[C@@H]2[C@@H](CCN2C(=O)c2ccc3c(c2)OCO3)[C@H]1CO | > 50 µM (inactive) |
| COc1ccc(NC(=O)N2CC[C@@H]3[C@@H](CO)N(C)c4ccc(-c5cccc(F)c5)cc4[C@@H]32)cc1 | > 50 µM (inactive) |
| CCC(=O)N1CC[C@@H]2[C@@H](CO)N(C)c3ccc(-c4ccc(F)cc4)cc3[C@@H]21 | > 50 µM (inactive) |
| CN1c2ccc(-c3cccc(F)c3)cc2[C@H]2[C@H](CCN2C(=O)CCCCCCN)[C@H]1CO | > 50 µM (inactive) |
| CCCCCCCC(=O)N1CC[C@@H]2[C@@H](CO)N(C)c3ccc(-c4cccc(F)c4)cc3[C@@H]21 | > 50 µM (inactive) |
| CNC(=O)c1ccc(N2CCN(C(=O)c3ccc4c(c3)OCO4)CC2)cc1 | > 50 µM (inactive) |
| CN1c2ccc(-c3cccc(F)c3)cc2[C@H]2[C@H](CCN2C(=O)Cc2ccccc2)[C@H]1CO | > 50 µM (inactive) |
| CN1c2ccc(-c3cccc(F)c3)cc2[C@H]2[C@H](CCN2C(=O)Nc2ccccc2F)[C@H]1CO | > 50 µM (inactive) |
| COc1ccccc1C(=O)N1CCN(c2ccc(C(C)=O)cc2)CC1 | > 50 µM (inactive) |
| CC(C)NC(=O)N1CC[C@@H]2[C@@H](CO)N(C)c3ccc(-c4cccc(F)c4)cc3[C@@H]21 | > 50 µM (inactive) |
| CC(C)NC(=O)N1CC[C@@H]2[C@@H](CO)N(C)c3ccc(-c4ccc(F)cc4)cc3[C@@H]21 | > 50 µM (inactive) |
| CC(=O)c1ccc(N2CCN(C(=O)c3ccccc3F)CC2)cc1 | > 50 µM (inactive) |
| COc1ccccc1NC(=O)N1CC[C@@H]2[C@@H](CO)N(C)c3ccc(-c4cccc(F)c4)cc3[C@@H]21 | > 50 µM (inactive) |
| COCC(=O)N1CC[C@@H]2[C@@H](CO)N(C)c3ccc(-c4cccc(F)c4)cc3[C@@H]21 | > 50 µM (inactive) |
| CC(=O)c1ccc(N2CC3(CN(C(=O)c4ccc5c(c4)OCO5)C3)C2)cc1 | > 50 µM (inactive) |
